In ChEMBL document CHEMBL1697781, “Assessment of the health effects of chemicals in humans: II. Construction of an adverse effects database for QSAR modeling” (Curr Drug Discov Technol, 2004):
Numbered stars: 1 amine (or outer) side, 2 acyl side, 3 side chain; on linkers, the order of the positions; unused ones are H or OH. Bridge positions count the residues as written; N and C are the ends. Square brackets hold non-standard residues; d marks the D form. Peptide text beside a SMILES is read from it. I, II: the chains in the order shown. Actinocin(9to1) = Cc1c2oc3c(C)ccc(C(=O)[*:1])c3nc-2c(C(=O)[*:2])c(N)c1=O; NMeV = CN[C@H](C(=O)O)C(C)C; Sar = CNCC(=O)O

Columns and labels:
Conditions in all cases: human; call rule not given here
[1] = test system: Hepatotoxicity; experiment: FDA HLAED, serum glutamic pyruvic transaminase (SGPT) increase
[2] = test system: Hepatotoxicity; experiment: FDA HLAED, liver enzyme composite activity
[3] = test system: Hepatotoxicity; experiment: FDA HLAED, serum glutamic oxaloacetic transaminase (SGOT) increase
[4] = test system: Hepatotoxicity; experiment: FDA HLAED, alkaline phosphatase increase

Compound	Composite Activity - Active [2]	Composite Activity - Marginal [2]	also measured
CC(=O)N[C@@H](CS)C(=O)O [ACETYLCYSTEINE]	1	0	SGPT Increase - Activity Score [1]: Active; SGPT Increase - Index Value [1]: 4.8; SGPT Increase - Number of Reports [1]: >= 4
Cc1c2oc3c(C)ccc(C(=O)N[C@@H]4C(=O)N[C@H](C(C)C)C(=O)N5CCC[C@H]5C(=O)N(C)CC(=O)N(C)[C@@H](C(C)C)C(=O)O[C@@H]4C)c3nc-2c(C(=O)N[C@@H]2C(=O)N[C@H](C(C)C)C(=O)N3CCC[C@H]3C(=O)N(C)CC(=O)N(C)[C@@H](C(C)C)C(=O)O[C@@H]2C)c(N)c1=O [DACTINOMYCIN] (I: T[dV]P[Sar][NMeV] / II: T[dV]P[Sar][NMeV]; ester I:1-I:C, II:1-II:C; linker I:N-II:N via Actinocin(9to1))	2	0	SGOT Increase - Activity Score [3]: Active; SGOT Increase - Index Value [3]: 29.6; SGOT Increase - Number of Reports [3]: >= 4; SGPT Increase - Activity Score [1]: Active; SGPT Increase - Index Value [1]: 23.7; SGPT Increase - Number of Reports [1]: >= 4; Composite Activity - Score [2]: Active
C#C[C@]1(O)CC[C@H]2[C@@H]3CCC4=Cc5oncc5C[C@]4(C)[C@H]3CC[C@@]21C [DANAZOL]	1	0	SGPT Increase - Activity Score [1]: Active; SGPT Increase - Index Value [1]: 10.2; SGPT Increase - Number of Reports [1]: >= 4
CC(O)(P(=O)(O)O)P(=O)(O)O [ETIDRONIC ACID]	1	0	Alkaline Phosphatase Increase - Activity Score [4]: Active; Alkaline Phosphatase Increase - Index Value [4]: 8.6; Alkaline Phosphatase Increase - Number of Reports [4]: >= 4
OCCN1CCN(CCCN2c3ccccc3Sc3ccc(C(F)(F)F)cc32)CC1 [FLUPHENAZINE]	0	0	
O=C(CCCN1CCC(O)(c2ccc(Cl)cc2)CC1)c1ccc(F)cc1 [HALOPERIDOL]	0	0	
FC(F)(F)C(Cl)Br (configuration not stated) [HALOTHANE]	1	0	SGOT Increase - Activity Score [3]: Active; SGOT Increase - Index Value [3]: 16.5; SGOT Increase - Number of Reports [3]: >= 4
NS(=O)(=O)c1cc2c(cc1Cl)NCNS2(=O)=O [HYDROCHLOROTHIAZIDE]	0	0	
NC(=O)NO [HYDROXYUREA]	0	0	
OCCOCCN1CCN(C(c2ccccc2)c2ccc(Cl)cc2)CC1 (configuration not stated) [HYDROXYZINE]	0	0	
CN1CCN(C2=Nc3ccccc3Oc3ccc(Cl)cc32)CC1 [LOXAPINE]	2	0	SGOT Increase - Activity Score [3]: Active; SGOT Increase - Index Value [3]: 9.9; SGOT Increase - Number of Reports [3]: >= 4; SGPT Increase - Activity Score [1]: Active; SGPT Increase - Index Value [1]: 9.9; SGPT Increase - Number of Reports [1]: >= 4; Composite Activity - Score [2]: Active
COC(=O)Nc1nc2ccc(C(=O)c3ccccc3)cc2[nH]1 [MEBENDAZOLE]	0	0	
CC(=O)O[C@]1(C(C)=O)CC[C@H]2[C@@H]3C[C@H](C)C4=CC(=O)CC[C@]4(C)[C@H]3CC[C@@]21C [MEDROXYPROGESTERONE ACETATE]	0	0	
CC(=O)O[C@]1(C(C)=O)CC[C@H]2[C@@H]3C=C(C)C4=CC(=O)CC[C@]4(C)[C@H]3CC[C@@]21C [MEGESTROL ACETATE]	0	0	
C#C[C@]1(O)CC[C@H]2[C@@H]3CCc4cc(OC)ccc4[C@H]3CC[C@@]21C [MESTRANOL]	0	0	
C=CCC1(C(C)C#CCC)C(=O)N=C(O)N(C)C1=O (configuration not stated) [METHOHEXITAL]	0	0	
C[C@](N)(Cc1ccc(O)c(O)c1)C(=O)O [METHYLDOPA]	0	0	
C[C@H]1C[C@@H]2[C@H]([C@@H](O)C[C@@]3(C)[C@H]2CC[C@]3(O)C(=O)COC(=O)CCCCCCC(=O)N(C)CCS(=O)(=O)O)[C@@]2(C)C=CC(=O)C=C12 [METHYLPREDNISOLONE 21-SULEPTANIC ACID ESTER]	0	0	
CCC(=O)O[C@]1(C(=O)COC(C)=O)CC[C@H]2[C@@H]3C[C@H](C)C4=CC(=O)C=C[C@]4(C)[C@H]3[C@@H](O)C[C@@]21C [METHYLPREDNISOLONE ACEPONATE]	0	0	
C[C@H]1C[C@@H]2[C@H]([C@@H](O)C[C@@]3(C)[C@H]2CC[C@]3(O)C(=O)COC(=O)CCC(=O)O)[C@@]2(C)C=CC(=O)C=C12 [METHYLPREDNISOLONE HEMISUCCINATE]	0	0	
C[C@H]1C[C@@H]2[C@H]([C@@H](O)C[C@@]3(C)[C@H]2CC[C@]3(O)C(=O)CO)[C@@]2(C)C=CC(=O)C=C12 [METHYLPREDNISOLONE]	0	0	
Cc1ncc([N+](=O)[O-])n1CCO [METRONIDAZOLE]	1	0	Alkaline Phosphatase Increase - Activity Score [4]: Active; Alkaline Phosphatase Increase - Index Value [4]: 6.2; Alkaline Phosphatase Increase - Number of Reports [4]: >= 4

Compound	Composite Activity - Active [2]	Composite Activity - Marginal [2]	also measured
CCOc1ccc2ccccc2c1C(=O)N[C@@H]1C(=O)N2[C@@H]1SC(C)(C)[C@@H]2C(=O)O [NAFCILLIN]	1	0	Alkaline Phosphatase Increase - Activity Score [4]: Active; Alkaline Phosphatase Increase - Index Value [4]: 10.9; Alkaline Phosphatase Increase - Number of Reports [4]: >= 4
CNCCC=C1c2ccccc2CCc2ccccc21 [NORTRIPTYLINE]			SGPT Increase - Activity Score [1]: Marginally Active; SGPT Increase - Index Value [1]: 11.6; SGPT Increase - Number of Reports [1]: < 4; Composite Activity - Active ([2]; Liver): 1; Composite Activity - Marginal ([2]; Liver): 1; Alkaline Phosphatase Increase - Activity Score [4]: Active; Alkaline Phosphatase Increase - Index Value [4]: 15.4; Alkaline Phosphatase Increase - Number of Reports [4]: >= 4
CC(C)(S)[C@@H](N)C(=O)O [PENICILLAMINE]	0	0	
OCCN1CCN(CCCN2c3ccccc3Sc3ccc(Cl)cc32)CC1 [PERPHENAZINE]	0	0	
O=C1NC(=O)C(c2ccccc2)(c2ccccc2)N1 [PHENYTOIN]			Composite Activity - Active ([2]; Liver): 0; Composite Activity - Marginal ([2]; Liver): 0
COc1cc2nc(N3CCN(C(=O)c4ccco4)CC3)nc(N)c2cc1OC [PRAZOSIN]	0	0	
C[C@]12C=CC(=O)C=C1CC[C@@H]1[C@@H]2C(=O)C[C@@]2(C)[C@H]1CC[C@]2(O)C(=O)CO [PREDNISONE]	0	0	
CCC1(c2ccccc2)C(=O)NCNC1=O [PRIMIDONE]	0	0	
CCCN(CCC)S(=O)(=O)c1ccc(C(=O)O)cc1 [PROBENECID]	0	0	
CNNCc1ccc(C(=O)NC(C)C)cc1 [PROCARBAZINE]	0	0	
CCCc1cc(=O)[nH]c(=S)[nH]1 [PROPYLTHIOURACIL]			Composite Activity - Active ([2]; Liver): 0; Composite Activity - Marginal ([2]; Liver): 0
C=C[C@H]1C[N@@]2CC[C@H]1C[C@@H]2[C@@H](O)c1ccnc2ccc(OC)cc12 [QUINIDINE]	0	0	
CC(=O)S[C@@H]1CC2=CC(=O)CC[C@]2(C)[C@H]2CC[C@@]3(C)[C@@H](CC[C@@]34CCC(=O)O4)[C@H]12 [SPIRONOLACTONE]	0	0	
Nc1ccc(S(=O)(=O)Nc2ncccn2)cc1 [SULFADIAZINE]			Composite Activity - Active ([2]; Liver): 0; Composite Activity - Marginal ([2]; Liver): 0
O=C(O)c1cc(/N=N/c2ccc(S(=O)(=O)Nc3ccccn3)cc2)ccc1O [SULFASALAZINE]	1	0	SGPT Increase - Activity Score [1]: Active; SGPT Increase - Index Value [1]: 4; SGPT Increase - Number of Reports [1]: >= 4
CN(C)[C@@H]1C(O)=C(C(N)=O)C(=O)[C@@]2(O)C(O)=C3C(=O)c4c(O)cccc4[C@@](C)(O)[C@H]3C[C@@H]12 [TETRACYCLINE]	0	0	
CSc1ccc2c(c1)N(CCC1CCCCN1C)c1ccccc1S2 (configuration not stated) [THIORIDAZINE]	0	1	Alkaline Phosphatase Increase - Activity Score [4]: Marginally Active; Alkaline Phosphatase Increase - Index Value [4]: 3.2; Alkaline Phosphatase Increase - Number of Reports [4]: >= 4
S=P(N1CC1)(N1CC1)N1CC1 [THIOTEPA]	0	0	
NC[C@H]1O[C@H](O[C@H]2[C@H](O)[C@@H](O[C@H]3O[C@H](CO)[C@@H](O)[C@H](N)[C@H]3O)[C@H](N)C[C@@H]2N)[C@H](N)C[C@@H]1O [TOBRAMYCIN]	0	0	
N[C@@H]1C[C@H]1c1ccccc1.N[C@H]1C[C@@H]1c1ccccc1 [TRANYLCYPROMINE]			Composite Activity - Active ([2]; Liver): 0; Composite Activity - Marginal ([2]; Liver): 0
CN1CCN(CCCN2c3ccccc3Sc3ccc(C(F)(F)F)cc32)CC1 [TRIFLUOPERAZINE]	0	0	
CC[C@]1(O)C[C@H]2CN(CCc3c([nH]c4ccccc34)[C@@](C(=O)OC)(c3cc4c(cc3OC)N(C=O)[C@H]3[C@@](O)(C(=O)OC)[C@H](OC(C)=O)[C@]5(CC)C=CCN6CC[C@]43[C@@H]65)C2)C1 [VINCRISTINE]	0	0	
